This note sets out measurements from US20250215029A1 (Recludix Pharma, Inc., priority 2022, published 2025).

Structures are written as SMILES.

The target in assay [1] is T1, Recombinant STAT6 protein (STAT6 (W123-T658)) (Homo sapiens, UniProt P42226).
T1 construct: Recombinant STAT6 protein (STAT6 (W123-T658))
T1 sequence (P42226 123-658): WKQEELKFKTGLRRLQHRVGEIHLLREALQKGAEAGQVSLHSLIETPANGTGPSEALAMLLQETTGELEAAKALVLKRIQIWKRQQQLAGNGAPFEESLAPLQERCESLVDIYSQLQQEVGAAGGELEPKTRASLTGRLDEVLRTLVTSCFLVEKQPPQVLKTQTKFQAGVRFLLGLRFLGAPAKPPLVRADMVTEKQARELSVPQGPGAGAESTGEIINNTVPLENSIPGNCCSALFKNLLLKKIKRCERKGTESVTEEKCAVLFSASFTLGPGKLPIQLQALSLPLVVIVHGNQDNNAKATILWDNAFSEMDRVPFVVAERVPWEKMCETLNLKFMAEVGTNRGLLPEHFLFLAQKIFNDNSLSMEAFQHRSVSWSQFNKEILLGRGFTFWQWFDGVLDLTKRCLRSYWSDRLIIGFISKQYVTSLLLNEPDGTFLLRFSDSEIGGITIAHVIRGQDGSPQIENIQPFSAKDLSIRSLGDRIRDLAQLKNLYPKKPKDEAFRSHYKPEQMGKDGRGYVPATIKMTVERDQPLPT
The assay can be described thus: STAT6 Fluorescence Polarization (FP) Assay. The note with it: STAT6 (W123-T658) 250 nM, probe 5-FAM-Ap[…]-NH2 2 nM, 45-minute incubation; read-out: STAT6 (FP assay IC50 class). In kind it is binding. The gist of the method: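 Probe displacement format: serially diluted compounds incubated 45 min at room temperature with 2 nM fluorescent phosphopeptide and 250 nM STAT6 (W123-T658) in pH 7.4 HEPES buffer, 1% DMSO final. Polarization signal plotted against log concentration, IC50 fitted by nonlinear regression.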

In assay [2] the target is T2, Recombinant STAT3 protein (STAT3 (G127-I722)) (Homo sapiens, UniProt P40763).
T2 construct: Recombinant STAT3 protein (STAT3 (G127-I722))
T2 sequence (P40763 127-722): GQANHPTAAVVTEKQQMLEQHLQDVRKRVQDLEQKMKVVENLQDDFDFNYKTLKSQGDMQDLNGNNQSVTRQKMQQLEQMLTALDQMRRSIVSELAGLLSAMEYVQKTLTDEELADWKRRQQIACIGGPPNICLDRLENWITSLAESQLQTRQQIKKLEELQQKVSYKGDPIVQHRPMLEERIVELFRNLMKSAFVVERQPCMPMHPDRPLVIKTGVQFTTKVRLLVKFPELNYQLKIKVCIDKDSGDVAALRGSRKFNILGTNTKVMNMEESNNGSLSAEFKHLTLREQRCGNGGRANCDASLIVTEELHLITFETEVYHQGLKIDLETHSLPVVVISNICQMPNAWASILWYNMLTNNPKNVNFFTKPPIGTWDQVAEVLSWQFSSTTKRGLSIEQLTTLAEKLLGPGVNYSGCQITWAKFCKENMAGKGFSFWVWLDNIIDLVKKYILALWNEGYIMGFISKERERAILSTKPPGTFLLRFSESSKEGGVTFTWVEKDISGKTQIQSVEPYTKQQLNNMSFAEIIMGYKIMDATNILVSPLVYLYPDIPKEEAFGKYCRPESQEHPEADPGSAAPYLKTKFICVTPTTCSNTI
The assay can be described thus: STAT3 Fluorescence Polarization (FP) Assay. The note with it: STAT3 (G127-I722) 25 nM, probe 5-FAM-GpYLPQTV-NH2 2 nM, 45-minute incubation; read-out: STAT3 (FP assay IC50 class). Format: binding. Put shortly:
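Displacement of a 2 nM 5-FAM-labelled pY peptide (GpYLPQTV) from 25 nM recombinant STAT3 (G127-I722) was monitored by fluorescence polarization. Incubation lasted 45 min at room temperature in pH 7.4 HEPES buffer containing 1% DMSO.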

As to `O=C(N[C@H]1CCC[C@H]2CC[C@@H](C(=O)N3CC(c4cccnc4)CC34CC4)N2C1=O)c1ccc2ccc(C(F)P(=O)(O)O)cc2c1` (stereo partly drawn) [Compound 904, (fluoro(7-(((3S,6S,9aS)-5-oxo-3-(6-(pyridin-3-yl)-4-azaspiro[2.4]heptane-4-carbonyl)octahydro-1H-pyrrolo[1,2-a]azepin-6-yl)carbamoyl)naphthalen-2-yl)methyl) phosphonic acid], the values for the IC50 in assay [1] and in assay [2] were 0.3 to 3 µM and 1 to 10 µM, respectively.

With `O=C(N[C@H]1CCC[C@H]2CC[C@@H](C(=O)N3CC(c4cnccc4-n4ccnc4)C3)N2C1=O)c1cc2cc([C@@H](F)P(=O)(O)O)ccc2s1` [Compound 853, ((S)-(2-(((3S,6S,9aS)-3-(3-(4-(1H-imidazol-1-yl)pyridin-3-yl)azetidine-1-carbonyl)-5-oxooctahydro-1H-pyrrolo[1,2-a]azepin-6-yl)carbamoyl)benzo [b]thiophen-5-yl)fluoromethyl) phosphonic acid], the figures for the IC50 in assay [1] and in assay [2] were 3 to 30 µM and 1 to 10 µM, respectively.

Take `O=C(N[C@H]1CCCC[C@H]2CC[C@@H](C(=O)N3CCC(c4cccnc4)C3)N2C1=O)c1ccc2ccc(C(F)P(=O)(O)O)cc2c1` (stereo partly drawn) [Compound 892, (fluoro(7-(((3S,6S,10aS)-5-oxo-3-(3-(pyridin-3-yl)pyrrolidine-1-carbonyl)decahydropyrrolo[1,2-a]azocin-6-yl)carbamoyl)naphthalen-2-yl)methyl) phosphonic acid]: the IC50 in assay [1] was in the range of 0.3 to 3 µM; in assay [2] it was 1 to 10 µM.

In the case of `O=C(N[C@H]1CCC[C@H]2CC[C@@H](C(=O)N3CC(c4ccnc(O)c4)C3)N2C1=O)c1cc2cc(C(F)P(=O)(O)O)ccc2s1` (stereo partly drawn) [Compound 619, (fluoro(2-(((3S,6S,9aS)-3-(3-(2-hydroxypyridin-4-yl)azetidine-1-carbonyl)-5-oxooctahydro-1H-pyrrolo[1,2-a]azepin-6-yl)carbamoyl)benzo [b]thiophen-5-yl)methyl) phosphonic acid], the IC50 lay in the range of 3 to 30 µM in assay [1] and 0.1 to 1 µM in assay [2].

As to `Cn1ccc(=O)c(C2CN(C(=O)[C@@H]3CC[C@@H]4CCC[C@H](NC(=O)c5cc6cc(CP(=O)(O)O)ccc6s5)C(=O)N43)C2)c1` [Compound 584, ((2-(((3S,6S,9aS)-3-(3-(1-methyl-4-oxo-1,4-dihydropyridin-3-yl)azetidine-1-carbonyl)-5-oxooctahydro-1H-pyrrolo[1,2-a]azepin-6-yl)carbamoyl)benzo[b]thiophen-5-yl)methyl)phosphonic acid], the IC50 in assay [1] was 3 to 30 µM; in assay [2], 1 to 10 µM.

As to `C/C1=C/C[C@H](NC(=O)c2cc3cc(C(F)(F)P(=O)(O)O)ccc3s2)C(=O)N2[C@H](CC[C@H]2C(=O)N2CC(c3cnccc3C)C2)C1` [Compound 641, (difluoro(2-(((3S,6S,10aR,Z)-9-methyl-3-(3-(4-methylpyridin-3-yl)azetidine-1-carbonyl)-5-oxo-1,2,3,5,6,7,10,10a-octahydropyrrolo[1,2-a]azocin-6-yl)carbamoyl)benzo [b]thiophen-5-yl)methyl) phosphonic acid], the IC50 in assay [1] is 0.3 to 3 µM; in assay [2] it was less than 0.1 µM.

`CCC[C@H]1CC[C@H](NC(=O)c2cc3cc(C(F)P(=O)(O)O)ccc3s2)C(=O)N2[C@H](CC[C@H]2C(=O)N2C[C@@H](C#N)[C@H](c3ccccc3)C2)C1` (single isomer, unassigned) [Compound 240]: the IC50 in assay [1] is no more than 0.3 µM; in assay [2], 1 to 10 µM.

For `O=C(N[C@H]1CCC[C@H]2CC[C@@H](C(=O)N3CCC(c4n[nH]cc4F)CC3)N2C1=O)c1cc2cc(C(F)P(=O)(O)O)ccc2s1` (stereo partly drawn) [Compound 591, (fluoro(2-(((3S,6S,9aS)-3-(4-(4-fluoro-1H-pyrazol-3-yl)piperidine-1-carbonyl)-5-oxooctahydro-1H-pyrrolo[1,2-a]azepin-6-yl)carbamoyl)benzo[b]thiophen-5-yl)methyl)phosphonic acid], the results for the IC50 in assay [1] and in assay [2] were 3 to 30 µM and 1 to 10 µM, respectively.

The term IC50 denotes the concentration needed to halve the response being measured.
